Laboratory results as given in patent publication US11332470B2, “CXCR4 inhibitors and uses thereof” (X4 Pharmaceuticals, Inc., priority 2016, dated 2022).

Tests used:
CXCR4 (U87.CXCR4 cells) = target: T1, CXCR4 (U87.CXCR4 cells) (Homo sapiens, UniProt P61073); assay: Intracellular CXCL-12-induced calcium mobilization assay (FLIPR); type: cell-based; conditions: CXCL-12 25-50 ng/mL, read-out: IC50 CXCL-12 Ca2+ flux U87.CXCR4+
T1 construct: expressed in transfected cells; host or cells: U87 (U87.CXCR4)
T1 sequence (P61073 whole entry): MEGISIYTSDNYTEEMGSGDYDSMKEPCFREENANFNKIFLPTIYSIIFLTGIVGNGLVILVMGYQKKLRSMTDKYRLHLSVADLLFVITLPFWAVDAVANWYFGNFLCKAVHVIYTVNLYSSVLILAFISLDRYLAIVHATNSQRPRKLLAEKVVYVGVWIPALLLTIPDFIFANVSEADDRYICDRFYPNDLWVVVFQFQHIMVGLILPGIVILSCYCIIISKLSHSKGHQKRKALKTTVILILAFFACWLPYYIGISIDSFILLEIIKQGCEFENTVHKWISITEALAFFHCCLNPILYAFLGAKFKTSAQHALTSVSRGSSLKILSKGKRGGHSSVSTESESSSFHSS
Description: Intracellular CXCL-12-Induced Calcium Mobilization Assay
Intracellular calcium mobilization induced by chemokines or chemokine-derived peptides were evaluated using a calcium responsive fluorescent probe and a FLIPR system. The CXCR-4 transfected U87 cell line (U87.CXCR4) cells were seeded in gelatine-coated black-wall 96-well plates at 20,000 cells per well and incubated for 12 hours. Cells were then loaded with the fluorescent calcium probe Fluo-2 acetoxymethyl at 4 μM final concentration in assay buffer (Hanks' balanced salt solution with 20 mM HEPES buffer and 0.2% bovine serum albumin, pH 7.4) for 45 min at 37° C. The intracellular calcium mobilization induced by the CXCL-12 (25-50 ng/mL) was then measured at 37° C. by monitoring the fluorescence as a function of time in all the wells simultaneously using a fluorometric imaging plate reader (FLIPR Tetra, Molecular Devices).

in vitro = conditions: human, Caco-2, pH 7.4
Description: The goal of this assay was to evaluate the intestinal absorption potential of drug candidates using Caco-2 cell lines.
1. Prewarm Prewarm HBSS Buffer in 37° C. water bath
2. Sonicate Take compounds from −20° C., sonicate for a few minutes (no less than 1 minute)
• Donor solution buffer: For A-to-B Direction: HBSS buffer with 0.3% DMSO and 5 μM LY: add 150 μL DMSO and 50 μL LY (5 mM) into 50 ml HBSS buffer (pH 7.4). HBSS buffer with 0.1% DMSO and 5 μM LY: add 50 μL DMSO and 50 μL LY (5 mM) into 50 mL HBSS buffer (pH 7.4). For B-to-A Direction: HBSS buffer with 0.3% DMSO: add 150 μL DMSO into 50 ml HBSS buffer (pH 7.4). HBSS buffer with 0.1% DMSO: add 50 μL DMSO into 50 ml HBSS buffer (pH 7.4). Receiver Solution Buffer: For A-to-B Direction: Prepare HBSS buffer with 0.4% DMSO: add 200 μL DMSO into 50 ml HBSS buffer (pH 7.4). For B-to-A Direction: Prepare HBSS buffer with 0.4% DMSO and 5 μM LY: add 200 μL DMSO and 50 μL LY (5 mM) into 50 ml HBSS buffer (pH 7.4).
4. Measure TEER Take cell culture plate out of incubator, wash the cell monolayers with HBSS buffer, and then measure TEER values at Rm temperature. 5. Centrifuge Centrifuge the compound solution (from step 3) at 4000 rpm for 5 min before loading to donor chambers. 6. Dosing Add solution based on the volumes listed in the following table (make sure to take extra 100 μL of donor sample for TO as Backup).
7. Apical LYT0 samples To determine LY concentration in the apical chamber, take 100 μL sample from apical chambers into an opaque plate for LYT0. 8. Prewarm Prewarm apical and basolateral plates at 37° C. for about 5 min, then begin transport by placing the apical plate onto basolateral plate. 9. Incubation Keep the plates in incubator at 37° C. for 90 min. 10.
Prepare Working Solution in MeOH/H2O (1:1)
• Prepare 1×solution: 3 μL (20×)+57 μL of 0.4% DMSO HBSS+60 μL ACN with IS (Osalmid or Imipramine)−120 μL (1×) 11. Transport termination Separate the apical plate from the basolateral plate after 90-min incubation. 12. Measure LY Take 100 μL samples from basolateral plate to an opaque plate as LYT90. 13. Measure LY concentrations for LYT0 and LYT90 by Fluorometer (at excitation of 485 nm/emission of 535 nm). 14.
Study details: Test concentration 10 μM
Test systems: Caco-2/HBSS solution
Incubation conditions: 0, 90 min at 37° C.
Sample size: Duplicates (n=2)
Bioanalytical method: LC-MS/MS
For Millicell-24 Cell Culture Plates: surface area of the membrane=0.7 cm^2, VA=0.8 mL (A-to-B) or 0.4 mL (B-to-A)
The compound numbers correspond to the compound numbers in Table 1.

[1] = target: T2, CXCR4 (Jurkat cells expressing CXCR4) (Homo sapiens, UniProt P61073); assay: Chemokine (CXCL12-AF647) binding inhibition assay; conditions: CXCL12-AF647 25 ng/mL, read-out: IC50 CXCL-12 binding Jurkat
T2 construct: Jurkat cells expressing CXCR4; endogenous in cells; host or cells: Jurkat
T2 sequence (P61073 whole entry): as above
Description: Chemokine (CXCL12-AF647) Binding Inhibition Assay
Jurkat cells expressing CXCR4 were washed once with assay buffer (Hanks' balanced salt solution with 20 mM HEPES buffer and 0.2% bovine serum albumin, pH 7.4) and then incubated for 15 min at room temperature with the test compounds diluted in assay buffer at dose-dependent concentrations. Subsequently, CXCL12-AF647 (25 ng/mL) was added to the compound-incubated cells. The cells were incubated for 30 min at room temperature. Thereafter, the cells were washed twice in assay buffer, fixed in 1% paraformaldehyde in PBS, and analyzed on the FL4 channel of a FACSCalibur flow cytometer equipped with a 635-nm red diode laser (Becton Dickinson, San Jose, Calif., USA).
The percentages of inhibition of CXCL12-AF647 binding were calculated according to the formula: [1−((MFI−MFINC)/(MFIPC−MFINC))]×100 where MFI is the mean fluorescence intensity of the cells incubated with CXCL12-AF647 in the presence of the inhibitor, MFINC is the mean fluorescence intensity measured in the negative control (i.e., autofluorescence of unlabeled cells), and MFIPC is the mean fluorescence intensity of the positive control (i.e., cells exposed to CXCL12-AF647 alone).

Row | SMILES | IC50 (CXCR4 (U87.CXCR4 cells)) | Papp A→B at 90 min, 10 μM (in vitro) | Papp B→A at 90 min, 10 μM (in vitro) | efflux ratio at 90 min, 10 μM (in vitro) | IC50 [1]
1 | Cc1cccnc1C1CCCN1Cc1nc2cccc(N3CCN(C)C4(CC4)C3)c2[nH]1 (stereo not shown) [Compound I-28] | 100 to 1000 nM | 0.1 to 10 ×10⁻⁶ cm/s | 10 to 30 ×10⁻⁶ cm/s | 0.1 to 10 | 100 to 1000 nM
2 | Cc1cccnc1C1CCCN1Cc1cn2c(N3CCN(C4CC4)CC3)cccc2n1 (stereo not shown) [Compound I-32] | 100 to 1000 nM | 0.1 to 10 ×10⁻⁶ cm/s | 10 to 30 ×10⁻⁶ cm/s | 0.1 to 10 | 100 to 1000 nM
3 | Cc1cccnc1C1CCCN1Cc1nc2cccc(N3CCN(C)CC3)n2c1F (stereo not shown) [Compound I-34] | 100 to 1000 nM | 0.1 to 10 ×10⁻⁶ cm/s | 10 to 30 ×10⁻⁶ cm/s | 0.1 to 10 | 100 to 1000 nM
4 | CN1CCN(c2cccc3nc(CN4CCCC4c4ncccc4Cl)c(F)n23)CC1 (stereo not shown) [Compound I-35] | ≥ 1000 nM | 0.1 to 10 ×10⁻⁶ cm/s | 10 to 30 ×10⁻⁶ cm/s | 0.1 to 10 | 100 to 1000 nM
5 | Cc1cccnc1C1CCCN1Cc1nccn1C1CCN(C)CC1 (stereo not shown) [Compound I-36] | ≥ 1000 nM | 0.1 to 10 ×10⁻⁶ cm/s | > 30 ×10⁻⁶ cm/s | 0.1 to 10 | 100 to 1000 nM
6 | Cc1cccnc1C1CCCN1Cc1nc2cccc(N3CCN(C)CC3)c2s1 (stereo not shown) [Compound I-37] | ≥ 1000 nM | 10 to 30 ×10⁻⁶ cm/s | 10 to 30 ×10⁻⁶ cm/s | 0.1 to 10 | 100 to 1000 nM
7 | Cc1cccnc1C1CCCN1Cc1ccccn1 (stereo not shown) [Compound I-39] | ≥ 1000 nM | 10 to 30 ×10⁻⁶ cm/s | 10 to 30 ×10⁻⁶ cm/s | 0.1 to 10 | 100 to 1000 nM
8 | Cc1cccnc1C1CCCN1Cc1nc2ccccn2c1N1CCN(C)CC1 (stereo not shown) [Compound I-40] | 0.01 to 100 nM | 0.1 to 10 ×10⁻⁶ cm/s | > 30 ×10⁻⁶ cm/s | 10 to 30 | 0.01 to 100 nM
9 | CN1CCN(c2cccc3nc(CN4CCCC4c4ccccn4)[nH]c23)CC1 (stereo not shown) [Compound I-44] | 100 to 1000 nM | 10 to 30 ×10⁻⁶ cm/s | > 30 ×10⁻⁶ cm/s | 0.1 to 10 | 0.01 to 100 nM
10 | Cc1cccnc1C1CCCN1Cc1nc2cccc(N3CCN(C)CC3)n2c1C (stereo not shown) [Compound I-46] | 100 to 1000 nM | 0.1 to 10 ×10⁻⁶ cm/s | 10 to 30 ×10⁻⁶ cm/s | > 30 | 0.01 to 100 nM
11 | Cc1c(CN2CCCC2c2ncccc2Cl)nc2cccc(N3CCN(C)CC3)n12 (stereo not shown) [Compound I-47] | 100 to 1000 nM | 0.1 to 10 ×10⁻⁶ cm/s | 10 to 30 ×10⁻⁶ cm/s | 0.1 to 10 | 0.01 to 100 nM
12 | Cc1cccnc1C1CCCN1Cc1nc2cccc(N3CCN4CCCC4C3)c2[nH]1 (stereo not shown) [Compound I-48] | 0.01 to 100 nM | 0.1 to 10 ×10⁻⁶ cm/s | 10 to 30 ×10⁻⁶ cm/s | 0.1 to 10 | 0.01 to 100 nM
13 | CN1CCN(c2cccc3nc(CN4CCCC4c4nccs4)[nH]c23)CC1 (stereo not shown) [Compound I-49] | ≥ 1000 nM | 10 to 30 ×10⁻⁶ cm/s | 10 to 30 ×10⁻⁶ cm/s | 0.1 to 10 | ≥ 1000 nM
14 | CN1CCN(c2cccc3nc(CN4CCCC4c4ncc[nH]4)cn23)CC1 (stereo not shown) [Compound I-50] | ≥ 1000 nM | 0.1 to 10 ×10⁻⁶ cm/s | 10 to 30 ×10⁻⁶ cm/s | 0.1 to 10 | ≥ 1000 nM
15 | CN1CCN(c2cccc3[nH]c(CN4CCCC4c4nccn4C)nc23)CC1 (stereo not shown) [Compound I-51] | ≥ 1000 nM | 0.1 to 10 ×10⁻⁶ cm/s | 10 to 30 ×10⁻⁶ cm/s | 0.1 to 10 | 100 to 1000 nM
16 | Cc1cccnc1C1CCCN1Cc1nccn1CC1CCN(C)CC1 (stereo not shown) [Compound I-52] | 0.01 to 100 nM | 0.1 to 10 ×10⁻⁶ cm/s | 10 to 30 ×10⁻⁶ cm/s | 0.1 to 10 | 0.01 to 100 nM
17 | Cc1cccnc1C1CCCN1Cc1ncccc1N1CCN(C)CC1 (stereo not shown) [Compound I-53] | ≥ 1000 nM | 0.1 to 10 ×10⁻⁶ cm/s | 10 to 30 ×10⁻⁶ cm/s | 0.1 to 10 | 0.01 to 100 nM
18 | CN1CCC(n2c(CN3CCCC3c3ccccn3)nc3ccccc32)CC1 (stereo not shown) [Compound I-54] | 100 to 1000 nM | 10 to 30 ×10⁻⁶ cm/s | 10 to 30 ×10⁻⁶ cm/s | 0.1 to 10 | 0.01 to 100 nM
19 | CN1CCC(n2ccnc2CN2CCCC2c2ccccn2)CC1 (stereo not shown) [Compound I-55] | ≥ 1000 nM | 0.1 to 10 ×10⁻⁶ cm/s | 10 to 30 ×10⁻⁶ cm/s | 0.1 to 10 | 100 to 1000 nM
20 | CN1CCN(c2cccnc2CN2CCCC2c2ccccn2)CC1 (stereo not shown) [Compound I-56] | ≥ 1000 nM | 10 to 30 ×10⁻⁶ cm/s | 10 to 30 ×10⁻⁶ cm/s | 0.1 to 10 | 100 to 1000 nM
21 | c1ccc(C2CCCN2Cc2nc3ccccn3c2N2CCN(C3CC3)CC2)nc1 (stereo not shown) [Compound I-57] | 100 to 1000 nM | 10 to 30 ×10⁻⁶ cm/s | 10 to 30 ×10⁻⁶ cm/s | 0.1 to 10 | 0.01 to 100 nM
22 | CN1CCN(c2c(CN3CCCC3c3ncccc3F)nc3ccccn23)CC1 (stereo not shown) [Compound I-60] | 0.01 to 100 nM | 10 to 30 ×10⁻⁶ cm/s | 10 to 30 ×10⁻⁶ cm/s | 0.1 to 10 | 0.01 to 100 nM
23 | CN1CCN(c2c(CN3CCCC3c3ccccn3)nc3c(F)cccn23)CC1 (stereo not shown) [Compound I-61] | 100 to 1000 nM | 10 to 30 ×10⁻⁶ cm/s | 10 to 30 ×10⁻⁶ cm/s | 0.1 to 10 | 0.01 to 100 nM
24 | CN1CCN(c2c(CN3CCCC3c3ccccn3)nc3cc(F)ccn23)CC1 (stereo not shown) [Compound I-62] | 0.01 to 100 nM | 0.1 to 10 ×10⁻⁶ cm/s | 10 to 30 ×10⁻⁶ cm/s | 0.1 to 10 | 0.01 to 100 nM
25 | CN1CCN(c2c(CN3CCCC3c3ccccn3)nc3cccc(F)n23)CC1 (stereo not shown) [Compound I-64] | 100 to 1000 nM | 0.1 to 10 ×10⁻⁶ cm/s | 10 to 30 ×10⁻⁶ cm/s | 0.1 to 10 | 0.01 to 100 nM
26 | c1ccc(C2CCCN2Cc2ccccc2-n2cccn2)nc1 (stereo not shown) [Compound I-65] | ≥ 1000 nM | > 30 ×10⁻⁶ cm/s | > 30 ×10⁻⁶ cm/s | 0.1 to 10 | 100 to 1000 nM
